Data from patent publication US8552026B2, “Isatin derivatives, medicaments containing the isatin derivatives and method for its preparation” (King Saud University, priority 2011, dated 2013).
Values after ≈ are worked out from the molar mass of the structure shown.

How the values were obtained:
Assay in all cases: In vitro anti-TB activity, agar dilution method
Format in all cases: cell-based
[1] = test system: Mycobacterium xenopi (ATCC 14470); conditions: ATCC14470, 35° C., 48 hours, read-out: MIC (μg/ml)/Mycobacterium strain M. xenopi
Method: (§1) The anti-TB activity of the synthesized compound was tested using the agar dilution method, see T. Aboul-Fadl, F. A. Mohammed, E. A. Hassan, Arch. Pharm. Res. 26 (2003) 778-784 and NCCLS Susceptibility Testing of Mycobacteria, Nocardia, and Other Aerobic Actinomycetes; Tentative Standard NCCLS document M24-T2 [ISBN 1-56238-423-6], second ed., NCCLS, 960 West Valley Road, Suite 1400, Wayne, Pa. 2000, 19087-1898, USA.
(§2) The synthesized compound was solubilized in DMSO at a concentration of 1 mg/ml. Appropriate amount was diluted first with 10% molten agar to give a concentration of 200 μg/ml. Further dilutions for the active compound were done to give 100, 50, 25, 12.5, 6.25 and up to 0.625 μg/ml. The agar and the compound solution were mixed thoroughly and the mixture was poured in Petri-dishes on a level surface to result in an agar depth of 3-4 mm and allowed to harden. The incula were prepared by growing overnight culture in Mueller-Hinton broth. The cultures were diluted 1:100. Test organisms were streaked in a radial pattern and plates were incubated at 35° C. for 48 hours. Control experiments consisted of the tested TB strains, DMSO and the growing media were treated in the same manner. Complete […] of growth was observed prior to declaring the compound to be active. The synthesized compound was evaluated for the antimycobacterial activity in vitro again four Mycobacterium strains: Mycobacterium intercellulari (ATCC35743), Mycobacterium xenopi (ATCC 14470), Mycobacterium cheleneo (ATCC 35751) and Mycobacterium smegmatis (ATCC 35797) by the agar dilution method. Isoniazid (INH) was used as a reference drug and control experiments done using a growth media free from drugs or the tested compound. Results of the in vitro antitubercular activity on the tested compound along with standard drug for comparison are given in table 1.

[2] = test system: Mycobacterium intercellulari (ATCC35743); conditions: for MIC: Mycobacterium, ATCC35743, agar dilution, 35° C., 48 hours, read-out: MIC (μg/ml)/Mycobacterium strain M. intercellulari
Method: as §1, §2

[3] = test system: Mycobacterium smegmatis (ATCC 35797); conditions: Mycolicibacterium smegmatis, ATCC35797, 35° C., 48 hours, read-out: MIC (μg/ml)/Mycobacterium strain M. smegmatis
Method: as §1, §2

[4] = test system: Mycobacterium cheleneo (ATCC 35751); conditions: ATCC35751, 35° C., 48 hours, read-out: MIC (μg/ml)/Mycobacterium strain M. cheleneo
Method: as §1, §2

| Structure (SMILES) | MIC [1] [µg/mL] | MIC [2] [µg/mL] | MIC [3] [µg/mL] | MIC [4] [µg/mL] | potency relative to INH in vitro ([2]; antitubercular activity screening, all four strains, versus first line drug INH) [times] |
| --- | --- | --- | --- | --- | --- |
| NNC(=O)c1ccncc1 [INH, Isoniazid, reference compound] | 12.5 (≈ 91.1 µM) | 12.5 (≈ 91.1 µM) | 12.5 (≈ 91.1 µM) | 12.5 (≈ 91.1 µM) | – |
| CCn1cc(C(=O)NN=C2C(=O)N(Cc3ccccc3)c3ccccc32)c(=O)c2ccc(C)nc21 [R = H; R1 = H, N′-(1-benzyl-2-oxoindolin-3-ylidene)-1-ethyl-1,4-dihydro-7-methyl-4-oxo-1,8-naphthyridine-3-carbohydrazid] | 0.625 (≈ 1.34 µM) | 0.625 (≈ 1.34 µM) | 0.625 (≈ 1.34 µM) | 0.625 (≈ 1.34 µM) | 20 |
